Assay [1] addresses T1, hD3R (Homo sapiens, UniProt P35462).
T1 construct: expressed in transfected cells
The assay can be described thus: [3H]spiperone displacement, membranes from CHO cells stably expressing hD3R. The format is binding.

Assay [2] concerns the target T2, D2SR/NTS1R (Homo sapiens, UniProt P14416+P30989).
T2 construct: expressed in transfected cells; host or cells: HEK 293 T
The assay is described as follows: cAMP BRET assay (CAMYEL biosensor), HEK 293 T cells coexpressing D2SR and NTS1R. In kind it is cell-based. The conditions noted are these: for Emax: HEK-293T, read-out: Effect (Emax) D2SR/NTS1R, cAMP accumulation.

Assay [3] concerns the target D2LR/NTS1R (Homo sapiens, UniProt P14416+P30989). The assay is described as follows: [3H]spiperone displacement, membranes from HEK 293 T cells coexpressing D2LR and NTS1R.
The target in assay [4] is T3, D2SR (Homo sapiens, UniProt P14416).
T3 construct: expressed in transfected cells; host or cells: HEK 293 T
T3 sequence (P14416 1-414 isoform P14416-2): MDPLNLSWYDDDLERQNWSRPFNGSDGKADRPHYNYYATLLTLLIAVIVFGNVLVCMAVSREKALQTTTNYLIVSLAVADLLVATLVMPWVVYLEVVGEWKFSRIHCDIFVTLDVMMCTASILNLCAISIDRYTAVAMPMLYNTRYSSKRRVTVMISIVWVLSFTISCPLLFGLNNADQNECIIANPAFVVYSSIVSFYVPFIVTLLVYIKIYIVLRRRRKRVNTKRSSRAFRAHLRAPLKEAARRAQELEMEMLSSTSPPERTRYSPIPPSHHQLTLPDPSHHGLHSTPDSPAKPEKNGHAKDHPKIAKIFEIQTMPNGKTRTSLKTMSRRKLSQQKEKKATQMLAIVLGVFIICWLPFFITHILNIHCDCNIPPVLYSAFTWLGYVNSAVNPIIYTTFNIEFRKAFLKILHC
The assay can be described thus: cAMP BRET assay (CAMYEL biosensor), HEK 293 T cells expressing D2SR. In kind it is cell-based.

The target of assay [5] is T4, D2R_D80A/NTS1R (Homo sapiens, UniProt P14416+P30989, D80A).
T4 construct: host or cells: HEK 293 stably expressing EA-tagged β-arrestin-2
T4 sequence (P14416 1-414 isoform P14416-2 D80A): as the sequence (P14416 1-414 isoform P14416-2) above, with D80A counted along it
T4 sequence (P30989 whole entry): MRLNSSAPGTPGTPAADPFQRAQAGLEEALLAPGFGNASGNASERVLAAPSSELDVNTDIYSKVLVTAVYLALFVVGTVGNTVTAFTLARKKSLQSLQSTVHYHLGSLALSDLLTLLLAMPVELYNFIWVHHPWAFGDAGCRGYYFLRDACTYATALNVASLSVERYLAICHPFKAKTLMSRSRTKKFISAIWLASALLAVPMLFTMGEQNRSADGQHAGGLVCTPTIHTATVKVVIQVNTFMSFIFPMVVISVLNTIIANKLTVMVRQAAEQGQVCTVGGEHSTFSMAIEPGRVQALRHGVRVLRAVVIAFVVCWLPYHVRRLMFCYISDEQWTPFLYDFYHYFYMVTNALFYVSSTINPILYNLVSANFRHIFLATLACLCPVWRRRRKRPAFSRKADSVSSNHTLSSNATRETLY
The assay is described as follows: β-arrestin-2 recruitment (DiscoveRx PathHunter), ProLink-tagged signalling incompetent D2R_D80A coexpressed with NTS1R. The format is cell-based. (In general: Recruitment of arrestin is a read-out of receptor activation apart from second messengers.)

For assay [6], the target named is T5, D2R (Homo sapiens, UniProt P14416).
T5 construct: expressed in transfected cells; host or cells: HEK 293 T
T5 sequence (P14416 1-414 isoform P14416-2): as the sequence (P14416 1-414 isoform P14416-2) above
The assay is described as follows: Antagonist effect on quinpirole-mediated inhibition of cAMP accumulation, HEK 293T cells expressing D2R. The format is cell-based. The conditions noted are these: 10 nM quinpirole. In general terms: Cyclic AMP is a second messenger, typically raised through Gs and lowered through Gi signalling.

The target of assay [7] is T6, hD4.4R (Homo sapiens, UniProt P21917).
T6 construct: expressed in transfected cells
T6 sequence (P21917 1-419): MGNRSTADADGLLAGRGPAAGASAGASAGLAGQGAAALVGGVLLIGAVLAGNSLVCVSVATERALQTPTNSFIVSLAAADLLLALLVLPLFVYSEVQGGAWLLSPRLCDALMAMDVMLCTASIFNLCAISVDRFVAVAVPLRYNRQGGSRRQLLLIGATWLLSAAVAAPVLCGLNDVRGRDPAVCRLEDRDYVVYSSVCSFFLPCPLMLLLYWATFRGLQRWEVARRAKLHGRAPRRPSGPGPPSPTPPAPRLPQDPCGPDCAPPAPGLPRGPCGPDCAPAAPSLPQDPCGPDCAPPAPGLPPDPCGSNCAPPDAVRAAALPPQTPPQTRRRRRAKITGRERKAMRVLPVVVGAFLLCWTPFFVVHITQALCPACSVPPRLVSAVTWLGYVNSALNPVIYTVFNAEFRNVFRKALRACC
The assay can be described thus: [3H]spiperone displacement, membranes from CHO cells stably expressing hD4.4R. The format is binding.

Assay [8] deals with T7, D2R/NTS1R (Homo sapiens, UniProt P14416+P30989).
T7 construct: host or cells: HEK 293 stably expressing EA-tagged β-arrestin-2
T7 sequence (P14416 1-414 isoform P14416-2): as the sequence (P14416 1-414 isoform P14416-2) above
T7 sequence (P30989 whole entry): as the sequence (P30989 whole entry) above
The assay can be described thus: β-arrestin-2 recruitment (DiscoveRx PathHunter), HEK 293 cells with ProLink-tagged D2R and NTS1R. The format is cell-based. The conditions noted are these: D2R/NTS1R-coexpressing cells.

The target in assay [9] is T8, hD2SR (Homo sapiens, UniProt P14416).
T8 construct: expressed in transfected cells
T8 sequence (P14416 1-414 isoform P14416-2): as the sequence (P14416 1-414 isoform P14416-2) above
The assay can be described thus: [3H]spiperone displacement, membranes from CHO cells stably expressing hD2SR. The format is binding.

The target in assay [10] is T4, D2R_D80A/NTS1R. The assay is described as follows: cAMP accumulation, cells coexpressing signalling incompetent D2R (D80A) and NTS1R. In kind it is cell-based.
Assay [11] deals with T9, hNTS2R (Homo sapiens, UniProt O95665).
T9 construct: host or cells: HEK 293T
T9 sequence (O95665 whole entry): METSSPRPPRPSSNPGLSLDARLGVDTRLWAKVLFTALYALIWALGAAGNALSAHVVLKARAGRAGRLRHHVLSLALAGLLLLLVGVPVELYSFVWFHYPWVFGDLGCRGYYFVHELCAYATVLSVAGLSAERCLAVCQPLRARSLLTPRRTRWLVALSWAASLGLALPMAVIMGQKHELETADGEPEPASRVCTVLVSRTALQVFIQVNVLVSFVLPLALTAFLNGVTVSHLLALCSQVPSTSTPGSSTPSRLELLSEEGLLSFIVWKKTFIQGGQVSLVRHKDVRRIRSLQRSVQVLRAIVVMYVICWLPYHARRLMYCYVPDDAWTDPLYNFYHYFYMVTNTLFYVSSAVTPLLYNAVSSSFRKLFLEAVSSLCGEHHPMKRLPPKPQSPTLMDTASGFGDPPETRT
The assay can be described thus: [3H]NT(8-13) displacement, homogenates from transiently transfected HEK 293T cells, human NTS2R. In kind it is binding.

Assay [12] has as its target T10, hD2LR (Homo sapiens, UniProt P14416).
T10 construct: expressed in transfected cells
The assay is described as follows: [3H]spiperone displacement, membranes from CHO cells stably expressing hD2LR. In kind it is binding.

Assay [13] has as its target T11, NTS1R (Homo sapiens, UniProt P30989). The assay can be described thus: radioligand displacement, homogenates from CHO cells stably expressing human NTS1R. Particulars: [3H]NT, mean ± s.d. The format is binding.
Assay [14] deals with T11, NTS1R. The assay can be described thus: cAMP BRET assay (CAMYEL biosensor), HEK 293 T cells expressing NTS1R. The format is cell-based. On the set-up: expressed in transfected cells; host or cells: HEK 293 T. Background: In BRET a luciferase serves as donor, and the signal depends on an acceptor being close.
Assay [15] concerns the target T12, human D2LR (Homo sapiens, UniProt P14416).
T12 construct: host or cells: HEK 293 T
The assay can be described thus: [3H]spiperone displacement, membranes from HEK 293 T cells transiently transfected with D2LR. The conditions noted are these: D2LR monoexpression; mean ± s.e.m. In kind it is binding.

Assay [16] has as its target T13, D2R/NTS1R heterodimer (D2LR and NTS1R coexpressed in HEK 293 T membranes), P14416. The assay is described as follows: +1 uM NT(8-13). The conditions noted are these: N-homotyrosine (NhTyr) in place of tyrosine; N-terminus carries a 22-atom polyethylene glycol-based spacer, a biphenyltriazole moiety and a 2-methoxyphenylpiperazine D2R antagonist pharmacophore.
For assay [17], the target named is T13, D2R/NTS1R heterodimer (D2LR and NTS1R …). The assay is described as follows: monophasic. Particulars: N-homotyrosine (NhTyr) in place of tyrosine; N-terminus carries a 22-atom polyethylene glycol-based spacer, a biphenyltriazole moiety and a 2-methoxyphenylpiperazine D2R antagonist pharmacophore.

“Also recorded” adds a separate entry of the source. Non-standard residues stand in square brackets, D forms with d. No end group written: not given here. N(4-hydroxyphenethyl)Gly = O=C(O)CNCCc1ccc(O)cc1; biphenyltriazole = not defined here

T2 sequence (P14416 1-414 isoform P14416-2): as the sequence (P14416 1-414 isoform P14416-2) above
T2 sequence (P30989 whole entry): as the sequence (P30989 whole entry) above
T11 sequence (P30989 whole entry): as above
Chain of D2LR/NTS1R (P14416 whole entry): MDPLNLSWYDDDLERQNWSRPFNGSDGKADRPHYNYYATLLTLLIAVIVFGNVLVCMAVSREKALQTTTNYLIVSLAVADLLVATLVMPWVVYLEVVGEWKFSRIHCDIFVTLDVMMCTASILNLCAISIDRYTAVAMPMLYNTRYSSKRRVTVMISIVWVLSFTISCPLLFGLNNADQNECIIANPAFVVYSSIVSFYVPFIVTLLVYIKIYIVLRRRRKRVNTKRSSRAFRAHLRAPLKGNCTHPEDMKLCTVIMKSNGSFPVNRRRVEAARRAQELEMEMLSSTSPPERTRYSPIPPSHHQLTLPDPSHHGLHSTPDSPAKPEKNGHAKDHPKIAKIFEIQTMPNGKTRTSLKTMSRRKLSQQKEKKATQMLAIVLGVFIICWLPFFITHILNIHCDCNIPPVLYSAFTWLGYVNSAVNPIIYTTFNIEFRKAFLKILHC
Chain of D2LR/NTS1R (P30989 whole entry): as the sequence (P30989 whole entry) above
T1 sequence (P35462 whole entry): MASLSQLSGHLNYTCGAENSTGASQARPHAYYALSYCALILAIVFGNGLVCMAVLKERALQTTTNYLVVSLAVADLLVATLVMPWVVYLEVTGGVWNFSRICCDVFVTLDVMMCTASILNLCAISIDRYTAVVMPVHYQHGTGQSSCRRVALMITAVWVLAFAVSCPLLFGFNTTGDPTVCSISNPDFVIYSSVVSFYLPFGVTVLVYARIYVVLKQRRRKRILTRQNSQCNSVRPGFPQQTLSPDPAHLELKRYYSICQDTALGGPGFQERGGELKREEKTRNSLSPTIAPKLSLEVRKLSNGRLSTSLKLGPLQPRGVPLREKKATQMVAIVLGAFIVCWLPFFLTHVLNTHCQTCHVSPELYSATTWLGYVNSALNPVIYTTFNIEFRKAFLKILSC
T13 sequence (P14416 whole entry, chain 1 of 2): as the sequence (P14416 whole entry) above
T13 sequence (P30989 whole entry, chain 2 of 2, further chain): as the sequence (P30989 whole entry) above
T10 sequence (P14416 whole entry): as the sequence (P14416 whole entry) above
T12 sequence (P14416 whole entry): as above

As to `CC[C@H](C)[C@H](NC(=O)[C@H](Cc1ccc(O)cc1)NC(=O)[C@@H]1CCCN1C(=O)[C@H](CCCNC(=N)N)NC(=O)[C@H](CCCNC(=N)N)NC(=O)CCOCCOCCOCCOCCOCCOCCNC(=O)CCOCCOCCOCCOCCOCCOCCNC(=O)c1ccc(-c2ccc(-n3cc(CCCCN4CCN(c5ccccc5OC)CC4)nn3)cc2)cc1)C(=O)N[C@@H](CC(C)C)C(=O)O` [2b], the Ki (as a rule, a dissociation constant, usually derived from enzyme kinetics or from competition with a known ligand) is 5.5 ± 0.9 nM in assay [1] and 180 ± 20 nM in assay [7]. In addition, the Emax in assay [2] turned out to be 31 ± 3%. For the same molecule, the “change of cAMP levels in the absence of forskolin” value in assay [2] (no forskolin, vehicle 0 %, maximum effect of NT(8-13) 100 %) was found to be 83%. Also, the “preference for the high- over the low-affinity binding site in the presence of GppNHp” value in [3] (100 μM GppNHp) is recorded as 330 fold. Also, the “Fraction high (fraction representing the high-affinity binding site)” value in assay [3] (D2LR:NTS1R 1:2, mean ± s.e.m.) is 55 ± 3%. Further, the entries for the “high affinity binding sites (fraction)” value in assay [3] (D2R/NTS1R = 2:1) and in assay [3] (D2R/NTS1R = 3:1) were 49 ± 3% and 30 ± 3%, respectively. In assay [3] (in presence of 100 μM GppNHp), the “fraction high +GppNHp” value was 46 ± 3%. Besides, the “effect on forskolin-induced cAMP accumulation, cells expressing D2R only (in words)” value in [4] (10 μM forskolin) is “remained without significant effects”. In addition, in assay [5], the “concentration of maximum effect (bell-shaped curve), D2R_D80A/NTS1R” value worked out at 300 nM. Besides, the “antagonist behaviour at D2R (in words)” value in [6] is on record as “neutral antagonists; also recorded: fully inhibit the effect of 10 nM quinpirole”. In assay [8], the “concentration of maximum β-arrestin-2 recruitment (bell-shaped curve)” value came to 300 nM.

As for `CCCN(CCCCc1cn(-c2ccc(-c3ccc(C(=O)NCCOC)cc3)cc2)nn1)C1Cc2ccccc2C1` [3g], the Ki is 3.3 ± 0.8 nM in assay [9]; 0.53 ± 0.25 nM in assay [1]; 300 ± 250 nM in assay [11]; 7.6 ± 1.7 nM in assay [12]; 180 ± 40 nM in assay [13]; 21 ± 4 nM in assay [15]. For the same molecule, the Emax was -63 ± 2% in [2] and -65 ± 1% in assay [4] (HEK-293T, read-out: Effect (Emax) D2SR, cAMP accumulation). Besides, the EC50 in assay [2] (read-out: EC50 D2SR/NTS1R, cAMP accumulation) was determined as 3.5 ± 1.4 nM; in assay [4] (read-out: EC50 D2SR, cAMP accumulation), 2.8 ± 0.4 nM. The “inhibition of cAMP accumulation, D2R (D80A)/NTS1R (in words)” value in assay [10] is “unable to inhibit cAMP accumulation”. In addition, the “receptor activation (cAMP), cells monoexpressing NTS1R (in words)” value in [14] (10 μM forskolin) is “caused no effect”. The “cAMP response, cells expressing NTS1R only, absence of FSK (in words)” value in assay [14] (no forskolin) is given as “do not elicit any response”.

As to {2‑methoxyphenylpiperazine D2R antagonist pharmacophore-biphenyltriazole-PEG spacer 22‑atom}-RRP[N(4-hydroxyphenethyl)Gly]IL (reading uncertain) [bivalent control compound 2e], the inhibitory constant (Ki) in assay [16] amounted to 96 nM; in [17], 30 nM.

For the origin of these results see publication PMC4963535, “Structure-guided development of heterodimer-selective GPCR ligands” (Nature Communications, 2016).
